Results taken from patent US11192890B2, “FGFR kinase inhibitors and pharmaceutical uses” (AUCKLAND UNISERVICES LIMITED, priority 2017, dated 2021).
Like-named read-outs stand apart in the source and are kept apart here.

Experiments:
FGFR2 = target: T1, FGFR2 (Homo sapiens, UniProt P21802); assay: Isolated enzyme FRET-based Z-Lyte kinase inhibition assay; assay type: biochemical; conditions: means from 3 independent experiments; read-out: Isolate Enzyme Inhibition IC50, FGFR2
T1 construct: purchased Invitrogen
T1 sequence (P21802 22-821): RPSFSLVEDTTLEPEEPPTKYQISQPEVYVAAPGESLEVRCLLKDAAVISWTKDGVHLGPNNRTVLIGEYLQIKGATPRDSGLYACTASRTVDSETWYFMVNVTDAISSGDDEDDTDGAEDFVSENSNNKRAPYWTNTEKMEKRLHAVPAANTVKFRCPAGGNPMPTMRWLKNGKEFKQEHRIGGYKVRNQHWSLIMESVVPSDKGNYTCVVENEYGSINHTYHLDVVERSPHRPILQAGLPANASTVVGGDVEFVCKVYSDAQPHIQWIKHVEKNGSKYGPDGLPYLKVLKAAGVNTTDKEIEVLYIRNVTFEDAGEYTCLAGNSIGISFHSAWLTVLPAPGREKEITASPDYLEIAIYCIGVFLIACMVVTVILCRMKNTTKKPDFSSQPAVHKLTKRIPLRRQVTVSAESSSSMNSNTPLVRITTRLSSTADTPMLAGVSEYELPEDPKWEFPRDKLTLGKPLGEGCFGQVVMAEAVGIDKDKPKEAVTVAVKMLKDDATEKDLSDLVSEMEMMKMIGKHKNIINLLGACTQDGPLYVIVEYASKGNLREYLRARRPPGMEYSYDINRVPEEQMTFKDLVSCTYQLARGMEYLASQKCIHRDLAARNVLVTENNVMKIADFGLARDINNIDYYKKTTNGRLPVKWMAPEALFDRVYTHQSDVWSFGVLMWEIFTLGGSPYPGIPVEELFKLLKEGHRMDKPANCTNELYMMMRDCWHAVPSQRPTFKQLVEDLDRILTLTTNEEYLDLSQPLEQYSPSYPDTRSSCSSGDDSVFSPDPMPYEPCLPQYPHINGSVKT
Procedure: (§1) FGFR1-4 and the Z-Lyte Kinase Assay Kit were purchased from Invitrogen. The concentration gradients from 5.1×10^−11 to 1.0×10^−6 mol/L were used for all the test compounds. The experiments were performed according to the instructions of the manufacturer.
(§2) FGFR1-4 isolated enzyme activity was determined using the FRET-based Z-Lyte kinase inhibition assay. The data are the means from 3 independent experiments.

FGFR3 = target: T2, FGFR3 (Homo sapiens, UniProt P22607); assay: as above; assay type: biochemical; conditions: means from 3 independent experiments; read-out: Isolate Enzyme Inhibition IC50, FGFR3
T2 construct: purchased Invitrogen
T2 sequence (P22607 23-806): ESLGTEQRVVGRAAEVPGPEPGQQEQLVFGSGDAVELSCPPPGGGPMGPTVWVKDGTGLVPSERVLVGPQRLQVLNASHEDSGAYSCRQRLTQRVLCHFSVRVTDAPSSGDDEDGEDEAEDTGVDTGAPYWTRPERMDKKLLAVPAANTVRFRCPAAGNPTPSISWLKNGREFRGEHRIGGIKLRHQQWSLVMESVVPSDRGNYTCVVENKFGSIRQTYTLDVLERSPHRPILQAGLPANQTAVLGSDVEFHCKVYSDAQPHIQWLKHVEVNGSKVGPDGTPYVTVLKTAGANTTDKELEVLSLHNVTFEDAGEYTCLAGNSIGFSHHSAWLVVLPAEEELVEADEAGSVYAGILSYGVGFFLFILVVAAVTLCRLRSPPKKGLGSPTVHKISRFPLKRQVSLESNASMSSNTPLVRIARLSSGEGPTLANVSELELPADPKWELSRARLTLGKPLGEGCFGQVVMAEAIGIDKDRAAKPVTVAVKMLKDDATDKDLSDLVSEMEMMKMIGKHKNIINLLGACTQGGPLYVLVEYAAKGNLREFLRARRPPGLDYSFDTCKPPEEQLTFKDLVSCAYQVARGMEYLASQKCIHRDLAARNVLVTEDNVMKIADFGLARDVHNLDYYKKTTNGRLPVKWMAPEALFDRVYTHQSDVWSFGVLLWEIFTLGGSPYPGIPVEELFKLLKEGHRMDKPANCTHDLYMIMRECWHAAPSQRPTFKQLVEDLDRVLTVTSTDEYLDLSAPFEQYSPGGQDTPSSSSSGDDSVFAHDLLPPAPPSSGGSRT
Procedure: as §1, §2

FGFR4 = target: T3, FGFR4 (Homo sapiens, UniProt P22455); assay: as above; assay type: biochemical; conditions: means from 3 independent experiments; read-out: Isolate Enzyme Inhibition IC50, FGFR4
T3 construct: purchased Invitrogen
T3 sequence (P22455 22-802): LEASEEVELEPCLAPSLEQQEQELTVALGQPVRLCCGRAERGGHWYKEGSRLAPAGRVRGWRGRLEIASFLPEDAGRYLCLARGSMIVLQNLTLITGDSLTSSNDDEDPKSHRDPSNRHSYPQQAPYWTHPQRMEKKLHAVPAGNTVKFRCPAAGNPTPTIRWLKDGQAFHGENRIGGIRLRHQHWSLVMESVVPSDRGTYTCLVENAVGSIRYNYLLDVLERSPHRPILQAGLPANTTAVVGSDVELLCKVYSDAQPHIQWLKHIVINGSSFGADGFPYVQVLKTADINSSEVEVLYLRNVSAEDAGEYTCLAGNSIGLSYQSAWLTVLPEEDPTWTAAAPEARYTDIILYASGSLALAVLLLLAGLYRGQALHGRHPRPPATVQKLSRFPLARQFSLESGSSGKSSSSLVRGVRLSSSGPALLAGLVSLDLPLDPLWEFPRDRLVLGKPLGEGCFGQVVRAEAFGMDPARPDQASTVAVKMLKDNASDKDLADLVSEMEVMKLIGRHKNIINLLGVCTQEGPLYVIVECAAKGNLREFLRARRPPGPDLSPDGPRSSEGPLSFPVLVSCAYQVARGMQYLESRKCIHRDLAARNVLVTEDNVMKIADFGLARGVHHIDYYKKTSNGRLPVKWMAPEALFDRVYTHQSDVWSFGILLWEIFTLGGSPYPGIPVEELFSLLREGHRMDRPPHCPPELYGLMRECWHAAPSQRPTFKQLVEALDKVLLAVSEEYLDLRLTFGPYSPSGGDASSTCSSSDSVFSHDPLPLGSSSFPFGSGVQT
Procedure: as §1, §2

[1] = tested on: FGFR1 in H520 cells (phospho-ERK1/2); assay: Drug washout Western blot assay, H520 cells; assay type: cell-based; conditions: for phospho-ERK1/2 after extensive drug washout: washout prior to FGF-stimulation
[2] = tested on: FGFR2 in SUM52 cells (phospho-ERK1/2); assay: Drug washout Western blot assay, SUM52 cells; assay type: cell-based; conditions: for inhibition of phosphorylation of ERK1/2, no washout / phospho-ERK1/2 after extensive drug washout: 30 min; for inhibition of phosphorylation of ERK1/2, no washout: then FGF-stimulation; for phospho-ERK1/2 after extensive drug washout: washout prior to FGF-stimulation
Procedure: Cells were seeded on the day prior to drug treatment (1 million cells/well; 6-well plate).
Drug stocks were prepared in media using 1 mM or 10 mM DMSO stock solutions. Media was aspirated from each well and replaced with 2 ml of drug-free media for control wells or 2 ml of diluted drug for treated wells. Cells were exposed to drug for 30 min. Recombinant FGF (50 ng/well) was added to each well 15 minutes prior to the end of the drug exposure and protein was extracted as below.
Cells were exposed to drug for 30 min as above. Media was aspirated and each well was washed with 5 ml drug-free media. The wash media was aspirated and replaced with 2 ml drug-free media and cells incubated for a further 30 minutes, after which the wash protocol was repeated. Cells were incubated for a further 90 minutes in drug-free media. Recombinant FGF (50 ng/well) was added to each well 15 minutes prior to the end of the drug-free incubation and protein was extracted as below.
Cell lysates were prepared in 250 μL of RIPA lysis buffer containing protease inhibitor (1:100). After incubation on ice (30 min) and centrifugation (13,000 rpm, 5 min, 4° C.) the supernatants containing the proteins were stored (−20° C.) until required. Bicinchoninic acid (BCA) assay was used to determine the protein concentration of individual cell lysate samples.

[3] = tested on: FGFR4-amplified Hep3B hepatocellular carcinoma cells; assay: Cell proliferation assay (SRB); assay type: cell-based; conditions: Homo sapiens, Hep3B; read-out: Cellular Anti-proliferative IC50, Hep3B
[4] = tested on: FGFR2-amplified SUM52 breast cancer cells; assay: Cell proliferation assay (SRB); assay type: cell-based; conditions: SUM52, 120 h, read-out: Cellular Anti-proliferative IC50, SUM52, 5 days drug exposure
[5] = tested on: FGFR3-amplified SW780 bladder cancer cells; assay: Cell proliferation assay (SRB); conditions: Homo sapiens, SW780, 120 h
[6] = tested on: FGFR3 in SW780 cells (phospho-ERK1/2); assay: Drug washout Western blot assay, SW780 cells; assay type: cell-based; conditions: for inhibition of phosphorylation of ERK1/2, no washout / phospho-ERK1/2 after extensive drug washout / reversible or irreversible inhibition of FGFR3 in cells: SW780; for inhibition of phosphorylation of ERK1/2, no washout / phospho-ERK1/2 after extensive drug washout: 30 min; for inhibition of phosphorylation of ERK1/2, no washout: then FGF-stimulation; for phospho-ERK1/2 after extensive drug washout: washout prior to FGF-stimulation; for reversible or irreversible inhibition of FGFR3 in cells: with and without washout
[7] = tested on: FGFR1-amplified H520 non-small cell lung cancer cells; assay: Cell proliferation assay (SRB); assay type: cell-based; conditions: Homo sapiens, NCI-H520, 168 h, read-out: Cellular Anti-proliferative IC50, H520
FGFR1 = target: T4, FGFR1 (Homo sapiens, UniProt P11362); assay: Isolated enzyme FRET-based Z-Lyte kinase inhibition assay; assay type: biochemical; conditions: means from 3 independent experiments; read-out: Isolate Enzyme Inhibition IC50, FGFR1
T4 construct: purchased Invitrogen
T4 sequence (P11362 22-822): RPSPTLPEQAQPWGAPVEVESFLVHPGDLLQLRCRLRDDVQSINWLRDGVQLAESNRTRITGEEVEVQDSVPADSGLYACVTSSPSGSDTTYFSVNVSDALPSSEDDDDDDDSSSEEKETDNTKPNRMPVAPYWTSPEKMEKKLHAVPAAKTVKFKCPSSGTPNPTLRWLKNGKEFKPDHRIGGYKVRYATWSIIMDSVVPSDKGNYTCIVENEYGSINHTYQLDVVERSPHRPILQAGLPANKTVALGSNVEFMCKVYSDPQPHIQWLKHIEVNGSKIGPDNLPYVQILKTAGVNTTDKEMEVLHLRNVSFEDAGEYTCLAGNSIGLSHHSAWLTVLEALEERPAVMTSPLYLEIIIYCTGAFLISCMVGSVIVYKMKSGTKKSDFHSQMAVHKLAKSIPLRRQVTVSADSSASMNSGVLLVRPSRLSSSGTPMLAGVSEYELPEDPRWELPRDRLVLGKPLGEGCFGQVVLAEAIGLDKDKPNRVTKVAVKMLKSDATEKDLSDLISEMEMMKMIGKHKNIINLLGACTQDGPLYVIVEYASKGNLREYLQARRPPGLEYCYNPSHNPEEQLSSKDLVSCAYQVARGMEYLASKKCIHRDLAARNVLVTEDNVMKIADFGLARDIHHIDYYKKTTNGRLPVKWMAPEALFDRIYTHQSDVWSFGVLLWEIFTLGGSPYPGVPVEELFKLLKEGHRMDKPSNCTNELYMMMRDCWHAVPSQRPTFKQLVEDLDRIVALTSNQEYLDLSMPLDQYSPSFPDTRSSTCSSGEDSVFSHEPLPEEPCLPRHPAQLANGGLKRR
Procedure: as §1, §2

[8] = target: T5, recombinant FGFR1 (C584S) kinase domain (Homo sapiens, UniProt P11362, C584S); assay: FGFR1 (C584S) covalent binding protein mass spectrometry assay; conditions: protein:inhibitor 1:10, 37° C.
T5 construct: made in house; host or cells: pETDuet vector, IPTG induction in Terrific Broth (bacterial)
T5 sequence (P11362 with tags, fused parts or gaps C584S): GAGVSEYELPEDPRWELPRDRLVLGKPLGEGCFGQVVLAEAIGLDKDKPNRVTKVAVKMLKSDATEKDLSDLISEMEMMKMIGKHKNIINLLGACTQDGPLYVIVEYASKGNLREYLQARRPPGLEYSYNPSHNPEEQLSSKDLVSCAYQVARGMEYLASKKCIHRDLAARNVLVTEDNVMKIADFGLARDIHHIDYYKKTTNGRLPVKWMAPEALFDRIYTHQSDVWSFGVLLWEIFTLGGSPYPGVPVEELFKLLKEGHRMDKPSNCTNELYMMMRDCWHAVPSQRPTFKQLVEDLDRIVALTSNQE
Procedure: The previously cloned C488A/C584S FGFR1 construct was modified by site-directed mutagenesis to provide a gene encoding the C584S FGFR1 kinase domain with the cysteine at amino acid C488 reinstated. Expression and purification of this protein followed the protocol described above but with the addition of 10% glycerol to all buffers and a change of buffer pH to a value of 8.5. Protein for mass spectrometry was concentrated to ˜40 mg/ml and was mixed 1:1 (v/v) with glycerol, and then frozen at −20° C. or flash cooled in liquid nitrogen and stored at −80° C. until needed.
Protein samples were buffer exchanged to remove glycerol (the final buffer comprised 20 mM Tris-HCl pH 8.5, 10% (v/v) glycerol, 20 mM NaCl, 5 mM EDTA, 2 mM TCEP) and were mixed with each inhibitor at 1:10 molar ratio (protein:inhibitor). Final protein concentration was 20 μM. […] Samples were mixed with 90 μL of 0.1% formic acid to quench the reaction followed by flash cooling in liquid nitrogen. Samples were stored at −80° C. until needed. All experiments were carried out in triplicate.
Samples were subjected to liquid chromatography mass spectrometry (LC-MS) to show mass changes attributable to irreversible inhibition. Mass spectrometry experiments were performed at the University of Auckland Mass Spectrometry Center using an electropspray QSTAR® XL ESI quadrupole Time-of-Flight (QToF) MS system (Applied Biosystems) operated in positive ionization mode. The instrument was calibrated using Renin Substrate Standard (SCIEX), over the m/z range 100-2000. Protein/inhibitor samples were thawed and 2 μL volumes injected into a liquid chromatography (LC) BIOshell™ A400 Protein C4 HPLC column (10 cm×2.1 mm, 3.4 μm) attached to the mass spectrometer. […] Following elution, samples were directly injected into the mass spectrometer for separation and mass analysis. Mass spectrometry data were processed and analysed using the PeakView™ 2.1 software and the Bio Tool Kit plug-in (SCIEX) and covered an m/z range of 330-1600. Deconvolution calculations allowed visualisation of intact mass protein peaks and allowed peak area measurement to assess the percentage of protein covalently modified by each inhibitor at each time point. Data was plotted using GraphPad Prism 7 (GraphPad).

Compound	% Conversion to FGFR1 (C584S) covalent adduct after 120 minutes incubation [8]	IC50 (FGFR2)	IC50 (FGFR3)	IC50 (FGFR4)	phospho-ERK1/2 after extensive drug washout ([1]; H520, 100 nM, 30 min)	phospho-ERK1/2 after extensive drug washout ([1]; H520, 1000 nM, 30 min)	inhibition of phosphorylation of ERK1/2, no washout ([2]; SUM52, 100 nM)	phospho-ERK1/2 after extensive drug washout ([2]; SUM52, 100 nM)	phospho-ERK1/2 after extensive drug washout ([2]; SUM52, 1000 nM)	IC50 [3]	IC50 [4]	inhibition of phosphorylation of ERK1/2, no washout ([6]; 100 nM)	phospho-ERK1/2 after extensive drug washout ([6]; 100 nM)	phospho-ERK1/2 after extensive drug washout ([6]; 1000 nM)	other results
CNc1ncc2c(n1)N([C@H]1CCN(C(=O)/C=C/CN(C)C)C1)C(=O)N(c1c(Cl)c(OC)cc(OC)c1Cl)C2 [Compound 103, (S,E)-3-(2,6-dichloro-3,5-dimethoxyphenyl)-1-(1-(4-(dimethylamino)but-2-enoyl)pyrrolidin-3-yl)-7-(methylamino)-3,4-dihydropyrimido[4,5-d]pyrimidin-2(1H)-one]		3.3 nM	17 nM	287 nM	restoration	restoration	complete inhibition	restoration	restoration	48 nM	4.8 nM	complete inhibition	restoration	restoration	reversible or irreversible inhibition of FGFR2 in cells ([2]; SUM52, 30 min exposure, 100 nM, with and without washout): reversible inhibitor; IC50 ([5]; read-out: Cellular Anti-proliferative IC50, SW780, 5 days drug exposure): 31 nM; reversible or irreversible inhibition of FGFR3 in cells ([6]; 30 min exposure, 100 nM): reversible inhibitor
COc1cc(OC)c(Cl)c(N2Cc3cnc(NC(C)C)nc3N([C@H]3CCN(C(=O)/C=C/CN(C)C)C3)C2=O)c1Cl [Compound 104, (S,E)-3-(2,6-dichloro-3,5-dimethoxyphenyl)-1-(1-(4-(dimethylamino)but-2-enoyl)pyrrolidin-3-yl)-7-(isopropylamino)-3,4-dihydropyrimido[4,5-d]pyrimidin-2(1H)-one]	8%	23 nM	35 nM	906 nM	restoration	essential full inhibition	complete inhibition	restoration	essential full inhibition	12 nM	1.4 nM	complete inhibition	restoration	essential full inhibition	IC50 [7]: 17 nM; IC50 (FGFR1): 1.1 nM; exposure concentration for irreversible inhibition (fully covalently bind the target) in cells ([1]; H520 (FGFR1), 30 minute exposure): 1000 nM; inhibition of phosphorylation of ERK1/2, no washout ([1]; H520, 100 nM, 30 min, then FGF-stimulation): complete inhibition; reversible or irreversible inhibition of FGFR1 in cells ([1]; H520, 2 hours exposure, 100, 300 and 600 nM, with and without washout): potent, irreversible inhibition; concentration required to suppress FGFR1 signalling through phospho-ERK1/2 ([1]; H520, 2 hours exposure, tested at 100, 300 and 600 nM): 300 nM; exposure concentration for irreversible inhibition (fully covalently bind the target) in cells ([2]; SUM52 (FGFR2), 30 minute exposure): 1000 nM; IC50 ([5]; read-out: Cellular Anti-proliferative IC50, SW780): 11 nM; exposure concentration for irreversible inhibition (fully covalently bind the target) in cells ([6]; SW780 (FGFR3), 30 minute exposure): 1000 nM; reversible or irreversible inhibition of FGFR3 in cells ([6]; 120 minutes exposure, 100 nM): reversible
COc1cc(OC)c(Cl)c(N2Cc3cnc(Nc4ccc(N5CCOCC5)cc4)nc3N(C3CCN(C(=O)/C=C/CN(C)C)CC3)C2=O)c1Cl [Compound 129, (E)-3-(2,6-dichloro-3,5-dimethoxyphenyl)-1-(1-(4-(dimethylamino)but-2-enoyl)piperidin-4-yl)-7-((4-morpholinophenyl)amino)-3,4-dihydropyrimido[4,5-d]pyrimidin-2(1H)-one]	46%														

Further lines, with some results ahead:

% Conversion to FGFR1 (C584S) covalent adduct after 120 minutes incubation [8]	Compound	IC50 (FGFR2)	IC50 (FGFR3)	IC50 (FGFR4)	phospho-ERK1/2 after extensive drug washout ([1]; H520, 100 nM, 30 min)	phospho-ERK1/2 after extensive drug washout ([1]; H520, 1000 nM, 30 min)	inhibition of phosphorylation of ERK1/2, no washout ([2]; SUM52, 100 nM)	phospho-ERK1/2 after extensive drug washout ([2]; SUM52, 100 nM)	phospho-ERK1/2 after extensive drug washout ([2]; SUM52, 1000 nM)	IC50 [3]	IC50 [4]	inhibition of phosphorylation of ERK1/2, no washout ([6]; 100 nM)	phospho-ERK1/2 after extensive drug washout ([6]; 100 nM)	phospho-ERK1/2 after extensive drug washout ([6]; 1000 nM)	other results
48%	COc1cc(OC)c(Cl)c(N2Cc3cnc(Nc4ccccc4)nc3N(C3CCN(C(=O)/C=C/CN(C)C)CC3)C2=O)c1 [Compound 128, (E)-3-(2-chloro-3,5-dimethoxyphenyl)-1-(1-(4-(dimethylamino)but-2-enoyl)piperidin-4-yl)-7-(phenylamino)-3,4-dihydropyrimido[4,5-d]pyrimidin-2(1H)-one]														
46%	COc1cc(OC)c(Cl)c(N2Cc3cnc(Nc4ccc(N5CCOCC5)cc4)nc3N(C3CCN(C(=O)/C=C/CN(C)C)CC3)C2=O)c1 [Compound 130, (E)-3-(2-chloro-3,5-dimethoxyphenyl)-1-(1-(4-(dimethylamino)but-2-enoyl)piperidin-4-yl)-7-((4-morpholinophenyl)amino)-3,4-dihydropyrimido[4,5-d]pyrimidin-2(1H)-one]														
39%	COc1cc(OC)cc(N2Cc3cnc(Nc4ccc(N5CCOCC5)cc4)nc3N(C3CCN(C(=O)/C=C/CN(C)C)CC3)C2=O)c1 [Compound 131, (E)-3-(3,5-dimethoxyphenyl)-1-(1-(4-(dimethylamino)but-2-enoyl)piperidin-4-yl)-7-((4-morpholinophenyl)amino)-3,4-dihydropyrimido[4,5-d]pyrimidin-2(1H)-one]														
